From ChEMBL document CHEMBL1155301, “Optimization of the aminopyridopyrazinones class of PDE5 inhibitors: discovery of 3-[(trans-4-hydroxycyclohexyl)amino]-7-(6-methoxypyridin-3-yl)-1-(2-propoxyethyl)pyrido[3,4-b]pyrazin-2(1H)-one” (Bioorg Med Chem Lett, 2009) come the findings set out here.

The nature of data set [1]: Clearance in rat. The settings on record: in vivo. Type of data set: ADME, organism-based.
For data set [2], the target named is High affinity cAMP-specific and IBMX-insensitive 3',5'-cyclic phosphodiesterase 8A (Homo sapiens, UniProt O60658). Description: Inhibition of PDE8A.
In data set [3] the target is 3',5'-cyclic-AMP phosphodiesterase 4A (Homo sapiens, UniProt P27815). Description: Inhibition of PDE4A.
Chain of 3',5'-cyclic-AMP phosphodiesterase 4A (P27815 whole entry): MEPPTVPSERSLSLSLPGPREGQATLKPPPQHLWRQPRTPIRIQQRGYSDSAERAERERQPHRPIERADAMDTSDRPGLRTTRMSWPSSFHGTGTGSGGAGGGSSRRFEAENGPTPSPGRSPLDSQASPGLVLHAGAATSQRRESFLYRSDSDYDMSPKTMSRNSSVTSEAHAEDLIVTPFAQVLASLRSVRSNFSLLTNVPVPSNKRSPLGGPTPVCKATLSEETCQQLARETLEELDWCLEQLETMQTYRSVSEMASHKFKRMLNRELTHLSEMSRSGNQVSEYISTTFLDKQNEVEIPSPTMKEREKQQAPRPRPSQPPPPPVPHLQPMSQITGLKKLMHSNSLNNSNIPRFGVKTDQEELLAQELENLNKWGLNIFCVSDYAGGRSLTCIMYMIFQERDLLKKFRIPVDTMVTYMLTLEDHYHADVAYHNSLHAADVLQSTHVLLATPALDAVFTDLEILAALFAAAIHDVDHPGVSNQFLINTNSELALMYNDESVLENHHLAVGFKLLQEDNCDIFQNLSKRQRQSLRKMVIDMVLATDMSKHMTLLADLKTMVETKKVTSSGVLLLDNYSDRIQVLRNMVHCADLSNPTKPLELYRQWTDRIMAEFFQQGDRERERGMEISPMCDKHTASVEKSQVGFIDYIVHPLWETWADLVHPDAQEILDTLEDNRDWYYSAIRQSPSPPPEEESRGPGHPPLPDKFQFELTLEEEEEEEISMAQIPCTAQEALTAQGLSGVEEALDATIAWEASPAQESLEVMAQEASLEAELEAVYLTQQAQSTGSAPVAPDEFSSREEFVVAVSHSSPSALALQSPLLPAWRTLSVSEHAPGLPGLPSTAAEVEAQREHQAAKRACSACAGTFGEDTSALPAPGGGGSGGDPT
For data set [4], the target named is Dual specificity calcium/calmodulin-dependent 3',5'-cyclic nucleotide phosphodiesterase 1A (Homo sapiens, UniProt P54750). Description: Inhibition of PDE1A.
Chain of Dual specificity calcium/calmodulin-dependent 3',5'-cyclic nucleotide phosphodiesterase 1A (P54750 whole entry): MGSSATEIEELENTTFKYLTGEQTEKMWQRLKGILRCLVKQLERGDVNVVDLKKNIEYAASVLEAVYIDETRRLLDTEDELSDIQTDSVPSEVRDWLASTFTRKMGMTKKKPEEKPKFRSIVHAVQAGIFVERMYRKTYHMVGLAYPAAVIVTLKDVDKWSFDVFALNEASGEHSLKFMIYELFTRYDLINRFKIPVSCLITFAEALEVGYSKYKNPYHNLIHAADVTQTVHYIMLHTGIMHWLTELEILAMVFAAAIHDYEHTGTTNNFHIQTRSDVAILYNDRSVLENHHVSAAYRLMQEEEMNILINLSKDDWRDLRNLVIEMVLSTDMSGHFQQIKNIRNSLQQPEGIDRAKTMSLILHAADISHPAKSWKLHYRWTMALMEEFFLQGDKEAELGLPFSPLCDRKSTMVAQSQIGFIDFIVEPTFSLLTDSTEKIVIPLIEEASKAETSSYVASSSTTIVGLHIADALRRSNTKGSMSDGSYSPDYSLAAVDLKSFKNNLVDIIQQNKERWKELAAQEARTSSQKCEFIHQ
The test system of data set [5] is Rattus norvegicus. In words: Antihypertensive activity against telemeterized rat at 10 mg/kg, po. Type of data set: functional, organism-based. Also noted: dose 10 mg/kg.
Data set [6] deals with Rod cGMP-specific 3',5'-cyclic phosphodiesterase subunit alpha (Homo sapiens, UniProt P16499). In words: Inhibition of PDE6.
Chain of Rod cGMP-specific 3',5'-cyclic phosphodiesterase subunit alpha (P16499 whole entry): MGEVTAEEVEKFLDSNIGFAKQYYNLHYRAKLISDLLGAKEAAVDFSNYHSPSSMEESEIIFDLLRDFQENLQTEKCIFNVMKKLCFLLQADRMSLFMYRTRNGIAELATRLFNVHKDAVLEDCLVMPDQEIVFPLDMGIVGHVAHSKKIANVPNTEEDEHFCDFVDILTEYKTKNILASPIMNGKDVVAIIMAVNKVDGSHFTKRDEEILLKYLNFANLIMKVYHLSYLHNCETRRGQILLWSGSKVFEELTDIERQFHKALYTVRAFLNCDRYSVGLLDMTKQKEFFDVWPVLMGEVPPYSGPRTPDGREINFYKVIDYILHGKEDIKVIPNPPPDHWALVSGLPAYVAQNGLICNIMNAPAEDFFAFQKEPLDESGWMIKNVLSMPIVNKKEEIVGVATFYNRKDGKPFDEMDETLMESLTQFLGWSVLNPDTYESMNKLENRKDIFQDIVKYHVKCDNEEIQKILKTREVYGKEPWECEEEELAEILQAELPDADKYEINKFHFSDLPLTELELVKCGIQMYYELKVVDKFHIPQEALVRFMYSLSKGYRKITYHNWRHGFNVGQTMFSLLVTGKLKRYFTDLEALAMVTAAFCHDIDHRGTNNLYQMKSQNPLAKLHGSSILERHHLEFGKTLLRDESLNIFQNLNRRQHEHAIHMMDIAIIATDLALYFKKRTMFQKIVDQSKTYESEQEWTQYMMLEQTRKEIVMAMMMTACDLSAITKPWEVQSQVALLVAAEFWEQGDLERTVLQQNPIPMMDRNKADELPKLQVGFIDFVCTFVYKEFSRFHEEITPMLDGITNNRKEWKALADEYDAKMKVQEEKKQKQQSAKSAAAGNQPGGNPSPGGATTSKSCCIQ
Data set [7] can be described thus: Half life in rat. Type of data set: ADME, organism-based. The note with it: in vivo.
The target in data set [8] is cGMP-inhibited 3',5'-cyclic phosphodiesterase 3B (Homo sapiens, UniProt Q13370). Description: Inhibition of PDE3B.
Data set [9] has as its target 3',5'-cyclic-AMP phosphodiesterase 4C (Homo sapiens, UniProt Q08493). Description: Inhibition of PDE4C.
In data set [10] the target is High affinity cGMP-specific 3',5'-cyclic phosphodiesterase 9A (Homo sapiens, UniProt O76083). Description: Inhibition of PDE9.
Data set [11] addresses High affinity cAMP-specific and IBMX-insensitive 3',5'-cyclic phosphodiesterase 8B (Homo sapiens, UniProt O95263). In words: Inhibition of PDE8B.
Data set [12] has as its target 3',5'-cyclic-AMP phosphodiesterase 7B (Homo sapiens, UniProt Q9NP56). Description: Inhibition of PDE7B.
In data set [13] the target is High affinity 3',5'-cyclic-AMP phosphodiesterase 7A (Homo sapiens, UniProt Q13946). In words: Inhibition of PDE7A.
For data set [14], the target named is cGMP-dependent 3',5'-cyclic phosphodiesterase (Homo sapiens, UniProt O00408). Description: Inhibition of PDE2.
The target in data set [15] is Dual specificity calcium/calmodulin-dependent 3',5'-cyclic nucleotide phosphodiesterase 1C (Homo sapiens, UniProt Q14123). In words: Inhibition of PDE1C.
The target of data set [16] is cGMP-inhibited 3',5'-cyclic phosphodiesterase 3A (Homo sapiens, UniProt Q14432). In words: Inhibition of PDE3A.
Chain of cGMP-inhibited 3',5'-cyclic phosphodiesterase 3A (Q14432 whole entry): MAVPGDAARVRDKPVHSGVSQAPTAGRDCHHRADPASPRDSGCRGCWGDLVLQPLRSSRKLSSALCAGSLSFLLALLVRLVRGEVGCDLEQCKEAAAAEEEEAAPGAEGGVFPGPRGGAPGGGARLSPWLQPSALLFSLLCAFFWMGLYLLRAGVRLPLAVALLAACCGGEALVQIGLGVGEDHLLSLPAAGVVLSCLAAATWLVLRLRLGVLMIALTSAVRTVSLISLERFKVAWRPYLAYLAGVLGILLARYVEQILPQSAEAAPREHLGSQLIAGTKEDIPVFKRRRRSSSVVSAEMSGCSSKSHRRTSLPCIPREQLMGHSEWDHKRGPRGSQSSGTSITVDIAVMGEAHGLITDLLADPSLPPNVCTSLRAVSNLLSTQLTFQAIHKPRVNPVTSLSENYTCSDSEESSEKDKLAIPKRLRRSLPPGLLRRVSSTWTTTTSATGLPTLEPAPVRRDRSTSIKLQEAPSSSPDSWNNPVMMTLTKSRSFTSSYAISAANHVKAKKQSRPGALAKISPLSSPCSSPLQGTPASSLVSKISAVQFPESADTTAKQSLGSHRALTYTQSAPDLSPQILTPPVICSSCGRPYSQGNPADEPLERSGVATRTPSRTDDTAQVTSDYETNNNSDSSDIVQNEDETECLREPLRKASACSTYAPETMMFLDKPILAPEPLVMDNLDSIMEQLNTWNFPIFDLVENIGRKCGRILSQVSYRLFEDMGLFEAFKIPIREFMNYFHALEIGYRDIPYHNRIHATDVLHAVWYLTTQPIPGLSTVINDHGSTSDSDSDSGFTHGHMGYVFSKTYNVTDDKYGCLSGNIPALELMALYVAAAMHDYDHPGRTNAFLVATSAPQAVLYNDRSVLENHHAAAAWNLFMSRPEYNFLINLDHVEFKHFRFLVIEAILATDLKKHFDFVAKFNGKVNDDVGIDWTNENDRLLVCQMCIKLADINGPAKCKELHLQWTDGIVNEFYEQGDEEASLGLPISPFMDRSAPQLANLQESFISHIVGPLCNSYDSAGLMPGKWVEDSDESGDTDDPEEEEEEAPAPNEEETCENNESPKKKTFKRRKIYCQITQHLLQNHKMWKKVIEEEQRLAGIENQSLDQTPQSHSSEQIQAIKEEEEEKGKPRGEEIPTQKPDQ
Data set [17] deals with Dual specificity calcium/calmodulin-dependent 3',5'-cyclic nucleotide phosphodiesterase 1B (Homo sapiens, UniProt Q01064). In words: Inhibition of PDE1B.
The target of data set [18] is Dual 3',5'-cyclic-AMP and -GMP phosphodiesterase 11A (Homo sapiens, UniProt Q9HCR9). Description: Inhibition of PDE11.
The target of data set [19] is 3',5'-cyclic-AMP phosphodiesterase 4B (Homo sapiens, UniProt Q07343). Description: Inhibition of PDE4B.
Chain of 3',5'-cyclic-AMP phosphodiesterase 4B (Q07343 whole entry): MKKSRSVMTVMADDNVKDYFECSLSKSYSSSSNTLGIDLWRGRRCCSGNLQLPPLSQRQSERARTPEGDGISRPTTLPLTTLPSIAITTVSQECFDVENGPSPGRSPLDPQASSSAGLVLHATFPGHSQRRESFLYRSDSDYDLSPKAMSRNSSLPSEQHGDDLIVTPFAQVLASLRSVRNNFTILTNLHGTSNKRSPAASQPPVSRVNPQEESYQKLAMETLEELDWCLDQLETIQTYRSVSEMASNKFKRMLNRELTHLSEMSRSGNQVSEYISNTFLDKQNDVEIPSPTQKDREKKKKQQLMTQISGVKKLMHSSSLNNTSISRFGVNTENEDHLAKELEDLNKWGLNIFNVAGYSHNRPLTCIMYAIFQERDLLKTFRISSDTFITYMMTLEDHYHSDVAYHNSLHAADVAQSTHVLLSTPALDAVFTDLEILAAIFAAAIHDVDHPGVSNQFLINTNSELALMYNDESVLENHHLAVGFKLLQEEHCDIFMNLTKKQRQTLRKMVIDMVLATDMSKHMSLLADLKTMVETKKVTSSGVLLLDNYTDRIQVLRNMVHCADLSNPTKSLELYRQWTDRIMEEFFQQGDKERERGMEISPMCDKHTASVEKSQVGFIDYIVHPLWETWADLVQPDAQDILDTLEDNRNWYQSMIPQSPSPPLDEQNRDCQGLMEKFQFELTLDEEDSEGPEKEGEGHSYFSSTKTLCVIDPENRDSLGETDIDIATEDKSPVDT
Data set [20] in a line: Oral bioavailability in dog at 2 mg/kg. Type of data set: ADME, organism-based, Canis lupus familiaris. The note with it: in vivo.
Data set [21] concerns the target cGMP-specific 3',5'-cyclic phosphodiesterase (Homo sapiens, UniProt O76074). Description: Inhibition of PDE5.
The nature of data set [22]: Oral bioavailability in rat at 2 mg/kg. Type of data set: ADME, organism-based. The settings on record: in vivo.
Data set [23] in a line: Volume of distribution in rat at 2 mg/kg, iv and 2 mg/kg, po. Type of data set: ADME, organism-based. The settings on record: in vivo.
Data set [24] is described as follows: Half life in rat at 2 mg/kg, po and 2 mg/kg, iv. Type of data set: ADME, organism-based. The settings on record: in vivo.
A short description of data set [25]: Clearance in dog at 2 mg/kg, po and 2 mg/kg, iv. Type of data set: ADME, organism-based, Canis lupus familiaris. The settings on record: in vivo.
A short description of data set [26]: Clearance in rat at 2 mg/kg, po and 2 mg/kg, iv. The settings on record: in vivo. Type of data set: ADME, organism-based.
Data set [27] is filed under the species Rattus norvegicus. In words: Unbound clearance in rat. The note with it: in vivo. Type of data set: ADME, organism-based.
A short description of data set [28]: Volume of distribution in dog at 2 mg/kg, iv and 2 mg/kg, po. The note with it: in vivo. Type of data set: ADME, organism-based, Canis lupus familiaris.
Data set [29] is filed under the species Rattus norvegicus. In words: Unbound volume of distribution in rat. Type of data set: ADME, organism-based. The note with it: in vivo.
Data set [30] in a line: Half life in dog at 2 mg/kg, po and 2 mg/kg, iv. Type of data set: ADME, organism-based, Canis lupus familiaris. The settings on record: in vivo.
A short description of data set [31]: Selectivity ratio of IC50 for PDE5 to IC50 for PDE6.
The nature of data set [32]: Permeability from apical to basolateral side in human Caco-2 cells. Type of data set: ADME, cell-based. The settings on record: read-out: permeability. On the technique in general: Caco-2 monolayers are a common model of the intestinal barrier.
For data set [33], the target named is 3',5'-cyclic-AMP phosphodiesterase 4D (Homo sapiens, UniProt Q08499).

Where “and” joins values, the source holds several entries; their conditions need not be identical. Identical values can stand only once. Calls of active or inactive are those of the source. The calls are words filed in the database; no cut-off is given here. A value given as a limit tells only on which side of the number the result lay.

Chain of High affinity cAMP-specific and IBMX-insensitive 3',5'-cyclic phosphodiesterase 8B (O95263 whole entry): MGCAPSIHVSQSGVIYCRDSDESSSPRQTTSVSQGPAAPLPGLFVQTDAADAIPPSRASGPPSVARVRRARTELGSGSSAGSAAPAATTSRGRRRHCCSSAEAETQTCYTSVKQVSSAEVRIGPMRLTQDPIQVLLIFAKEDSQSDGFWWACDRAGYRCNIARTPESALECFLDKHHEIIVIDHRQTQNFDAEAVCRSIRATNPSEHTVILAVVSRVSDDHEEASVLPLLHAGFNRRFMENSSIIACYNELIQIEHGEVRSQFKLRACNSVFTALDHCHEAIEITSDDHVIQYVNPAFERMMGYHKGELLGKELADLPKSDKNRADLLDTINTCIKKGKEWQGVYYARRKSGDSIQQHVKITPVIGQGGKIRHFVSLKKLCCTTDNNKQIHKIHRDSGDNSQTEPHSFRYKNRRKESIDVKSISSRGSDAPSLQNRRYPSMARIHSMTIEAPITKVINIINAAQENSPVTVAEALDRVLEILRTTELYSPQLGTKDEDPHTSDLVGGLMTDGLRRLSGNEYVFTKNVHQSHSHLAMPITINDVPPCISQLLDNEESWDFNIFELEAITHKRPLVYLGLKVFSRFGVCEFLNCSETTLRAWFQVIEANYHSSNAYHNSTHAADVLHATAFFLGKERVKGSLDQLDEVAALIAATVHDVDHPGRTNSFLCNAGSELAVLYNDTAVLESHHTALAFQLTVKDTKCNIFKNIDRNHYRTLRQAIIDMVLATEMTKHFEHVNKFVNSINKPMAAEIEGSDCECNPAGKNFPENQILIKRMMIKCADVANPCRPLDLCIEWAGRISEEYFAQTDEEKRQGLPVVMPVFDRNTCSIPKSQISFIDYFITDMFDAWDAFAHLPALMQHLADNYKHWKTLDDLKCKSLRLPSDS

On to `CCCOCCn1c(=O)c(NCCN2CCOCC2)nc2cnc(-c3ccc(OC)nc3)cc21`, for which the clearance in [1] is 33 mL/min/kg. In addition, the IC50 (commonly the concentration needed to halve the response being measured) is > 2000 nM in data set [2]; > 2000 nM in [3]; > 2000 nM in [4]; 11.3 nM in data set [6]; > 2000 nM in [8]; > 2000 nM in [9]. In addition, the IC50 in [10], in data set [11], in [12], in data set [13], in data set [14] and in data set [15] was > 2000 nM in each case. In addition, the IC50 in [16] was > 2000 nM; in data set [17] it was > 2000 nM; in data set [18], 346 nM; in data set [19], > 2000 nM. In addition, the outcome in the data set on Rattus norvegicus [5] was Active. The half-life (as a rule, the time in which the quantity being followed falls by half) in [7] was 0.8 h.
With `CCCOCCn1c(=O)c(NC[C@H](C)O)nc2cnc(-c3ccc(OC)nc3)cc21`, the bioavailability – broadly, the share of a dose that reaches the circulation, judged against a reference dose that is usually intravenous – in data set [20] is 38%; in [22] it was 42%. Besides, the IC50 in [6] was found to be 15.3 nM; in data set [21], 0.09 nM. Also, the figures for the Vd in data set [23] and in data set [28] were 1 L/kg and 4.3 L/kg, respectively. The half-life in [24] was 1.3 h; in data set [30], 4.1 h. Further, the clearance in data set [25] worked out at 17.8 mL/min/kg; in [26] it was 13.8 mL/min/kg. The CL free in the data set filed under Rattus norvegicus [27] came out at 500 mL/min/kg. The molecule also displayed a Vdu in the data set filed under Rattus norvegicus [29] of 35 L/kg.
For `CCCOCCn1c(=O)c(NCCCO)nc2cnc(-c3ccc(OC)nc3)cc21`, the IC50 in [6] amounted to 13.8 nM; in [21], 0.26 nM. The molecule further came in with a bioavailability in [22] of 52%. The molecule also had a Vd in [23] of 1.2 L/kg. The same molecule showed a half-life in [24] of 0.7 h. Also, in data set [26], the clearance came to 28 mL/min/kg. For the same molecule, the Ratio IC50 in [31] was 30. The molecule further came in with a CL free in the data set listed under Rattus norvegicus [27] of 730 mL/min/kg. The molecule further showed a Vdu in the data set listed under Rattus norvegicus [29] of 31 L/kg.
Molecule `CCCOCCn1c(=O)c(NCCN2CCOCC2)nc2ncc(-c3ccc(OC)nc3)cc21` returned an IC50 in [6] of 61.8 nM. In data set [7], this molecule gave a half-life of 1.8 h.
In the case of `CCCOCCn1c(=O)c(N[C@H]2CC[C@H](O)CC2)nc2cnc(-c3ccc(OC)nc3)cc21`, the bioavailability in [20] turned out to be 75%; in [22], 50%. The IC50 in data set [2] was > 2000 nM; in data set [3], > 2000 nM; in [4], > 2000 nM; in [6], 9.8 nM; in [8], > 2000 nM; in data set [9], > 2000 nM. Moreover, the IC50 in data set [33] was 1210 nM; in data set [21], 0.05 nM; in data set [10], > 2000 nM; in [11], > 2000 nM; in data set [12], > 2000 nM; in [13] it was > 2000 nM. Moreover, the IC50 in data set [14] was > 2000 nM; in [15] it was > 2000 nM; in data set [16] it was > 2000 nM; in data set [17], > 2000 nM; in data set [18], 64.1 nM; in data set [19], > 2000 nM and 290 nM. Further, in the data set with Rattus norvegicus [5], the outcome was Active. Further, in data set [32], the Papp A→B was found to be 34 ×10⁻⁶ cm/s. The Vd in data set [23] amounted to 1.4 L/kg; in [28], 3.7 L/kg. Moreover, the results for the half-life in data set [24] and in data set [30] were 4.1 h and 17.6 h, respectively. Further, the clearance in [25] is 3.5 mL/min/kg; in data set [26], 5.5 mL/min/kg. The molecule also came in with a CL free in the data set listed under Rattus norvegicus [27] of 400 mL/min/kg. The molecule further displayed a Vdu in the data set filed under Rattus norvegicus [29] of 100 L/kg.
